Where a name gives a salt, the structure may show the parent alone. Read-outs that look alike come from different tables or passages of the source.
Tests used:
[1] = system: Staphylococcus aureus, Streptococcus pneumoniae, Streptococcus pyogenes, Enterococcus faecalis, Enterococcus faecium, Haemophilus influenzae, Moraxella …; assay: Antimicrobial Activity Assay: whole-cell MIC by broth microdilution (CLSI M7-A7); type: cell-based, Gram-positive and Gram-negative organisms; settings: against a strain of at least one of the organisms listed
Protocol: Whole-cell antimicrobial activity was determined by broth microdilution using the Clinical and Laboratory Standards Institute (CLSI) recommended procedure, Document M7-A7, “Methods for Dilution Susceptibility Tests for Bacteria that Grow Aerobically”. The compounds were tested in serial two-fold dilutions ranging from 0.016 to 16 mcg/ml.
The minimum inhibitory concentration (MIC) was determined as the lowest concentration of compound that inhibited visible growth. A mirror reader was used to assist in determining the MIC endpoint.
Compounds were evaluated against Gram-positive organisms, selected from Staphylococcus aureus, Streptococcus pneumoniae, Streptococcus pyogenes, Enterococcus faecalis and Enterococcus faecium.
In addition, compounds were evaluated against Gram-negative organisms selected from Haemophilus influenzae, Moraxella catarrhalis, Escherichia coli, Pseudomonas aeruginosa, Proteus mirabilis, Enterobacter cloacae, Enterobacter aerogenes, Klebsiella pneumoniae and Stenotrophomonas maltophilia.

[2] = system: Mycobacterium tuberculosis H37Rv; assay: Mycobacterium tuberculosis H37Rv Inhibition Assay (resazurin MIC); type: cell-based
[3] = system: Neisseria gonorrhoeae; assay: In vitro MIC by CLSI agar dilution against Neisseria gonorrhoeae isolates; type: cell-based; settings: for MIC90: Neisseria gonorrhoeae
[4] = system: N. gonorrhoeae MS11; assay: MIC / susceptibility of N. gonorrhoeae MS11 (strain of the mouse model); type: cell-based, Neisseria gonorrhoeae
[5] = system: N. gonorrhoeae MS11; assay: Mouse model of N. gonorrhoeae vaginal colonization; type: in vivo, mice; settings: for mice in which colonization with N. gonorrhoeae MS11 was eliminated by the end of the study: two studies
Protocol: A mouse model of N. gonorrhoeae vaginal colonization was performed to evaluate the efficacy of compounds of the present invention. Two independent studies were performed by the same laboratory.
In particular, Example 39 (i.e., (2R)-2-({4-[(3,4-Dihydro-2H-pyrano[2,3-c]pyridin-6-ylmethyl)amino]-1-piperidinyl}methyl)-1,2-dihydro-3H, 8H-2a,5,8a-triazaacenaphthylene-3,8-dione hydrochloride) was tested in this model following a single oral dose or a total of two oral doses administered on the same day. Female mice were primed for colonization using estradiol; trimethoprim sulfate and streptomycin were administered to control commensals. On day 0, mice were inoculated intravaginally with N. gonorrhoeae MS11 (Example 39—MIC 1 μg/ml). Successful colonization was confirmed via vaginal swab culture on days 1 and 2. Single oral doses at 100 mg/kg and 200 mg/kg or a total of two oral doses at 100 mg/kg each of Example 39 were administered on day 2. Vaginal swabs for quantitative culture were collected daily through day 10 (8 days post treatment).

[6] = Estimation of PK parameters from blood samples in mice; type: in vivo; settings: estimated
Protocol: In one study, blood samples were collected terminally from a separate group of mice at 1, 2, 6 and 12 hours post Example 39 administration (n=3 per time point and dose) to allow for estimation of PK parameters.

[7] = 144 h, H37Rv strain, six days incubation, resazurin fluorescence after 48 hours, read-out: MIC value
[8] = read-out: MIC value, H37Rv strain, six days incubation, resazurin fluorescence after 48 hours
[9] = 144 h, read-out: MIC value, H37Rv strain, six days incubation, resazurin fluorescence after 48 hours
[10] = H37Rv strain, six days incubation, resazurin fluorescence after 48 hours, read-out: MIC value

Q: For `O=c1ccc2ccc(=O)n3c2n1C[C@H]3CN1CCC(NCc2cc3c(cn2)COC3)CC1` [Example 9, (1R)-1-({4-[(1,3-Dihydrofuro[3,4-c]pyridin-6-ylmethyl)amino]-1-piperidinyl}methyl)-1,2-dihydro-4H,9H-imidazo[1,2,3-ij]-1,8-naphthyridine-4,9-dione hydrochloride], which MIC [1] is on record?
A: ≤ 4 µg/mL

Q: With `Cl.Cl.O=C1COc2cc(Cl)c(CNC3CCN(C[C@@H]4Cn5c(=O)ccc6ccc(=O)n4c65)CC3)nc2N1` [Example 32, (1R)-1-[(4-{[(7-Chloro-3-oxo-3,4-dihydro-2H-pyrido[3,2-b][1,4]oxazin-6-yl)methyl]amino}-1-piperidinyl)methyl]-1,2-dihydro-4H,9H-imidazo[1,2,3-ij]-1,8-naphthyridine-4,9-dione dihydrochloride] as the compound, how does the MIC [2, 7] read?
A: < 2 µg/mL

Q: With `O=C1CSc2cnc(CNC3CCN(C[C@@H]4Cn5c(=O)ccc6ccc(=O)n4c65)CC3)nc2N1` [Example 34, (1R)-1-[(4-{[(7-Oxo-6,7-dihydro-1H-pyrimido[5,4-b][1,4]thiazin-2-yl)methyl]amino}-1-piperidinyl)methyl]-1,2-dihydro-4H,9H-imidazo[1,2,3-ij]-1,8-naphthyridine-4,9-dione dihydrochloride] as the compound, how does the MIC [2, 8] read?
A: < 2 µg/mL

Q: For `O=c1cnc2ccc(=O)n3c2n1C[C@H]3CN1CCC(NCc2cc3c(cn2)OCCC3)CC1` [Example 37, (1R)-1-({4-[(3,4-Dihydro-2H-pyrano[2,3-c]pyridin-6-ylmethyl)amino]-1-piperidinyl}methyl)-1,2-dihydro-3H,8H-2a,5,8a-triazaacenaphthylene-3,8-dione hydrochloride], which MIC [2, 9] is on record?
A: < 2 µg/mL

Q: What does the source list for `O=c1ccc2ncc(=O)n3c2n1C[C@H]3CN1CCC(NCc2cc3c(cn2)OCCC3)CC1` [Example 39, (2R)-2-({4-[(3,4-Dihydro-2H-pyrano[2,3-c]pyridin-6-ylmethyl)amino]-1-piperidinyl}methyl)-1,2-dihydro-3H,8H-2a,5,8a-triazaacenaphthylene-3,8-dione hydrochloride]?
A: MIC [2, 10]: < 2 µg/mL; MIC90 fold higher than that of ceftriaxone ([3]; 30 isolates of N. gonorrhoeae): at least 16 fold; MIC90 fold lower than ciprofloxacin ([3]; 30 isolates of N. gonorrhoeae): at least 8 fold; MIC90 ([3]; 30 isolates of N. gonorrhoeae collected 2003 through 2007, read-out: MIC90 (MIC which inhibits 90% of the isolates tested)): 0.5 µg/mL; MIC90 ([3]; second study, all 145 isolates of N. gonorrhoeae, majority collected in 2013, read-out: MIC90): 0.5 µg/mL; MIC90 ([3]; second study, subset of 37 ciprofloxacin-nonsusceptible isolates, read-out: MIC90): 1 µg/mL; modal value (MIC) ([3]; against the 9 ciprofloxacin-resistant N. gonorrhoeae tested): remained unchanged; MIC ([4]; Neisseria gonorrhoeae, N. gonorrhoeae MS11): 1 µg/mL; change in susceptibility of N. gonorrhoeae MS11 colonies recovered from treated mice ([4]; compared with stock cultures of the organism): did not demonstrate any change in susceptibility; course of colonization after initial clearance ([5]; first study, one mouse in each dose group, not observed in the follow-up study): regrowth to a high number of organisms by the end of the study; mice in which colonization with N. gonorrhoeae MS11 was eliminated by the end of the study ([5]; single oral dose of 100 mg/kg on day 2): 70-80%; mice in which colonization with N. gonorrhoeae MS11 was eliminated by the end of the study ([5]; single oral dose of 200 mg/kg on day 2): 90-100%; mice in which colonization with N. gonorrhoeae MS11 was eliminated by the end of the study ([5]; two 100 mg/kg oral doses administered on the same day): 100%; fAUC0-24 ([6]; single oral dose of 100 mg/kg): 8000 ng·h/mL; fAUC0-24 ([6]; single oral dose of 200 mg/kg): 22000 ng·h/mL; fAUC0-24 ([6]; two 100 mg/kg oral doses on the same day): 16000 ng·h/mL

Q: Which MIC [2, 9] does the source give for `O=c1ccc2ncc(=O)n3c2n1C[C@H]3CN1CCC(NCc2ccc3c(c2)OCCO3)CC1` [Example 40, (2R)-2-({4-[(2,3-Dihydro-1,4-benzodioxin-6-ylmethyl)amino]-1-piperidinyl}methyl)-1,2-dihydro-3H,8H-2a,5,8a-triazaacenaphthylene-3,8-dione hydrochloride] here?
A: < 2 µg/mL

Q: Which MIC [2, 10] does the source give for `Cl.N#Cc1cc(CNC2CCN(C[C@@H]3Cn4c(=O)ccc5ncc(=O)n3c54)CC2)cc2c1OCCO2` [Example 42, 7-{[(1-{[(2R)-3,8-Dioxo-1,2-dihydro-3H,8H-2a,5,8a-triazaacenaphthylen-2-yl]methyl}-4-piperidinyl)amino]methyl}-2,3-dihydro-1,4-benzodioxin-5-carbonitrile hydrochloride] here?
A: < 2 µg/mL

Q: Which MIC [2, 8] does the source give for `O=c1cnc2ccc(=O)n3c2n1C[C@H]3CN1CCC(NCc2ccc3c(c2)OCCO3)CC1` [Example 44, (1R)-1-({4-[(2,3-Dihydro-1,4-benzodioxin-6-ylmethyl)amino]-1-piperidinyl}methyl)-1,2-dihydro-3H,8H-2a,5,8a-triazaacenaphthylene-3,8-dione hydrochloride] here?
A: < 2 µg/mL

Q: For `O=c1ccc2ccc(=O)n3c2n1C[C@H]3CN1CCC(NCc2nc3cccc(F)c3[nH]2)CC1` [Example 46, (1R)-1-[(4-{[(4-Fluoro-1H-benzimidazol-2-yl)methyl]amino}-1-piperidinyl)methyl]-1,2-dihydro-4H,9H-imidazo[1,2,3-ij]-1,8-naphthyridine-4,9-dione dihydrochloride], which MIC [2, 8] is on record?
A: < 2 µg/mL

Q: For `O=c1ccc2ncc(=O)n3c2n1C[C@H]3CN1CCC(NCc2cnc3nsnc3c2)CC1` [Example 49, (2R)-2-({4-[([1,2,5]Thiadiazolo[3,4-b]pyridin-6-ylmethyl)amino]-1-piperidinyl}methyl)-1,2-dihydro-3H,8H-2a,5,8a-triazaacenaphthylene-3,8-dione], which MIC [2, 7] is on record?
A: < 2 µg/mL

Q: Which MIC [2, 9] does the source give for `O=c1ccc2ccc(=O)n3c2n1C[C@H]3CN1CCC(NCc2ccc3c(c2)OCCC3)CC1` [Example 50, (1R)-1-({4-[(3,4-Dihydro-2H-chromen-7-ylmethyl)amino]-1-piperidinyl}methyl)-1,2-dihydro-4H,9H-imidazo[1,2,3-if]-1,8-naphthyridine-4,9-dione hydrochloride] here?
A: < 2 µg/mL

Q: For `N#Cc1cc(CNC2CCN(C[C@@H]3Cn4c(=O)cnc5ccc(=O)n3c54)CC2)cc2c1OCCO2` [Example 56, 7-{[(1-{[(1R)-3,8-Dioxo-1,2-dihydro-3H,8H-2a,5,8a-triazaacenaphthylen-1-yl]methyl}-4-piperidinyl)amino]methyl}-2,3-dihydro-1,4-benzodioxin-5-carbonitrile hydrochloride], which MIC [2, 9] is on record?
A: < 2 µg/mL

Q: Which MIC [2, 10] does the source give for `O=c1ccc2ccc(CNC3CCN(C[C@@H]4Cn5c(=O)ccc6ccc(=O)n4c65)CC3)cc2o1` [Example 59, (1R)-1-[(4-{[(2-Oxo-2H-chromen-7-yl)methyl]amino}-1-piperidinyl)methyl]-1,2-dihydro-4H,9H-imidazo[1,2,3-ij]-1,8-naphthyridine-4,9-dione] here?
A: < 2 µg/mL

Source: patent US10702521B2, “Methods for treating neisseria gonorrhoeae infection with substituted 1,2-dihydro-2A,5,8A-triazaacenaphthylene-3,8-diones” (priority 2014, dated 2020)
